Data reported in patent US8568696B2, “Grinding method for the manipulation or preservation of calcium phosphate hybrid properties” (Indiana Nanotech LLC, priority 2008, dated 2013).
Each block holds one compound with its values, some of them ahead of it.

Columns and labels:
[1] = Long-term accelerated aging of NaF(aq)-hybrid suspensions, fluoride availability by fluoride-sensitive electrode; assay type: physicochemical; conditions: supernatant, triplicate
Protocol: Long-term accelerated aging studies were performed on NaF(aq)-hybrid suspensions. The experiments were carried out in triplicate with 1 mL of each supernatant aspirated, mixed with 1 mL of TISAB II (1:1), and measured with a fluoride-sensitive electrode calibrated to known standards of 100, 950, and 1900 ppm fluoride.
The purpose of this study was to determine if the NaF(aq)-hybrid suspensions maintain sufficient fluoride availability. • 0.24% and 0.32% NaF systems were aged for 122 Days @ 40° C. • 0.05% NaF systems were aged for 119 Days @ 40° C. Results

[2] = In vitro remineralization/demineralization pH cycling study, Vickers surface microhardness of eroded enamel; design: species or system Bovine; conditions: change in Vickers microhardness relative to baseline
Protocol: An efficacy study was run in order to evaluate in multiple pH remin/demin cycling models the efficacy of calcium phosphate blends prepared as described above in remineralizing eroded enamel. These studies involved 226 ppm fluoride rinse systems.
The experiment design for the remineralization/demineralization pH cycling study is as follows. Bovine enamel specimens were extracted, ground, and polished. Initial erosion was performed by immersing each enamel specimen in 10 ml of 1% citric acid (pH=3.8) for 30 minutes. After the immersion, four baseline Vickers indentations under a 200 gf load for 15 seconds were made on each specimen and those with a Vickers microhardness number between 200 and 230 VHN were selected for the study. There were three groups in this study (N=10 specimens per group): • Group 1: negative control (DI water) • Group 2: positive control (226 ppm F) • Group 3: 226 ppm F plus 0.004% β-tricalcium phosphate-silica-carbamide
The cycling regimen consisted of five, two-minute/day acid challenges and three, two-minute treatments/day. In between treatments and acid challenges, each specimen was immersed in artificial mineral mix. This process was repeated up to 20 days, after which a post-cycle acid challenge was administered using 1% citric acid (pH=3.8) for 11 minutes. The specimens were evaluated for Vickers surface microhardness after 10 and 20 days as well as after the post-cycle acid challenge. The change in Vickers microhardness relative to baseline values was then used as the performance gauge. Remineralization efficacy was evaluated by comparing post surface Vickers microhardness numbers to baseline surface Vickers values. Means and standard deviations of the means were calculated and the Student Q-test was employed to assess accuracy of the individual specimen measurements within each group. […]
This cycling study evaluated the β-tricalcium phosphate-silica-carbamide blend when combined in a 226 ppm fluoride (NaF(aq)) solution and tested in a pH cycling model. […]

- Mean ppm F ± Std. Dev ([1]; aged for 119 Days @ 40° C.): 231.7 ± 0.5 ppm F
Compound: [F-].[Na+] [0.05% NaF Control]

Compound: [F-].[Na+] [Group 2]
- Mean ΔVHN ± SEM, after 10 days ([2]; 10 days pH cycling, N=10 specimens per group): 73.2 ± 7.0^2
- Mean ΔVHN ± SEM, after 20 days ([2]; 20 days pH cycling, N=10 specimens per group): 67.6 ± 7.6^2
- Mean ΔVHN ± SEM, after post-cycle acid challenge ([2]; after 11-minute post-cycle acid challenge, 1% citric acid pH 3.8): 81.9 ± 7.1^2

- Mean ppm F ± Std. Dev ([1]; aged for 122 Days @ 40° C.): 1493.3 ± 3.3 ppm F
Compound: [F-].[Na+] [0.32% NaF Control]

- Mean ppm F ± Std. Dev ([1]; aged for 122 Days @ 40° C.): 1080.7 ± 4.8 ppm F
Compound: [F-].[Na+] [0.24% NaF Control]
